Our source for the CC50 values is patent US7030150B2, “Benzimidazole compounds and antiviral uses thereof” (Trimeris, Inc., priority 2001, dated 2006).

For orientation: CC50 means the concentration that lowers cell viability or growth by half. The low end stands for harm at low concentration, the high end for better tolerance by the cells.

For the series, the system named is uninfected Hep2 cells.
In the case of `ClCc1nc2ccccc2n1Cc1nc2ccccc2[nH]1` [compound 1], it took 50 µM to reach half-maximal cytotoxicity (CC50).

`Cc1nc(Cn2c(CN(C(C)C)C3CCCCC3)nc3ccccc32)cs1` [compound 2] gave a CC50 of 50 µM. This counts as double-digit micromolar.

Compound `COc1cc(Cn2c(CN(C(C)C)C3CCCCC3)nc3ccccc32)cc(OC)c1` [compound 3] registered a CC50 of 50 µM.

Turning to `CC(C)N(Cc1nc2ccccc2n1Cc1c2ccccc2nc2ccccc12)C1CCCCC1` [compound 10], the half-maximal cytotoxic concentration (CC50) was at least 100 µM.

In turn, `COC(=O)c1ccc2nc(CN3CCOCC3)n(Cc3nc4ccccc4[nH]3)c2c1` [compound 11] gave a CC50 of 26 µM.

In turn, `CC(C)N(Cc1nc2ccccc2n1Cc1cccc(Oc2ccccc2)c1)C1CCCCC1` [compound 12] registered a CC50 of at least 100 µM.

The compound `CC(C)N(Cc1nc2ccccc2n1Cc1ccc(S(C)(=O)=O)cc1)C1CCCCC1` [compound 13] had a half-maximal cytotoxic concentration (CC50) of at least 100 µM.

For the compound `CSc1ccc(Cn2c(CN(C(C)C)C3CCCCC3)nc3ccccc32)cc1` [compound 14], the CC50 was determined as 30 µM.

Take `CCCN(Cc1nc2ccccc2n1Cc1ccc2ccccc2n1)CC1CC1` [compound 20]: half-maximal cytotoxicity (CC50) was put at 50 µM.

For `CCCN(Cc1nc2ccccc2n1Cc1csc(C)n1)CC1CC1` [compound 21], the midpoint of cytotoxicity, the CC50, lay at 50 µM.

On to `CCCN(Cc1nc2ccccc2n1Cc1c2ccccc2nc2ccccc12)CC1CC1` [compound 23], for which the CC50 was at least 101 µM.

Consider `CCCN(Cc1nc2ccccc2n1Cc1cc(F)cc2c1OCOC2)CC1CC1` [compound 24], for which it took 82 µM to reach half-maximal cytotoxicity (CC50).

`CCCN(Cc1nc2ccccc2n1Cc1cccc(Oc2ccccc2)c1)CC1CC1` [compound 25] registered a CC50 of at least 101 µM.

`CCCN(Cc1nc2ccccc2n1Cc1ccc(S(C)(=O)=O)cc1)CC1CC1` [compound 26] returned a CC50 of 97 µM. This counts as double-digit micromolar.

With `Cc1nc(Cn2c(CN(Cc3ccccc3)C(C)C)nc3ccccc32)cs1` [compound 40], the midpoint of cytotoxicity, the CC50, lay at 50 µM.

In turn, `c1ccc2nc(Cn3c(CN4CCCCC4)nc4ccccc43)ccc2c1` [compound 50] showed a CC50 of 50 µM.

For `Cc1nc(Cn2c(CN3CCCCC3)nc3ccccc32)cs1` [compound 51], half-maximal cytotoxicity (CC50) was put at 50 µM.

In turn, `O=[N+]([O-])c1ccc(Cn2c(CN3CCCCC3)nc3ccccc32)o1` [compound 54] came in with a CC50 of 97 µM.

`Fc1cc2c(c(Cn3c(CN4CCCCC4)nc4ccccc43)c1)OCOC2` [compound 59]: the CC50 was at least 100 µM.

Compound `CS(=O)(=O)c1ccc(Cn2c(CN3CCCCC3)nc3ccccc32)cc1` [compound 60] yielded a CC50 of at least 100 µM.

Take `CSc1ccc(Cn2c(CN3CCCCC3)nc3ccccc32)cc1` [compound 61]: the midpoint of cytotoxicity, the CC50, lay at 20 µM.

The compound `FC(F)(F)Oc1ccccc1Cn1c(CN2CCCCC2)nc2ccccc21` [compound 62] yielded a CC50 of 34 µM.

For the compound `c1ccc2c(Cn3c(CN4CCCCC4)nc4ccccc43)c3ccccc3nc2c1` [compound 72], the 50% cytotoxic concentration (CC50) is at least 100 µM.

`Fc1cc2c(c(Cn3c(CN4CCCCC4)nc4ccccc43)c1)OCOC2` [compound 73]: half-maximal cytotoxicity (CC50) was put at 101 µM.

The compound `c1ccc(Oc2cccc(Cn3c(CN4CCCCC4)nc4ccccc43)c2)cc1` [compound 74] came in with a CC50 of 10 µM. This CC50 is about 10-fold lower than that of the compound before.

The compound `FC(F)(F)Oc1ccccc1Cn1c(CN2CCCCC2)nc2ccccc21` [compound 75] displayed a CC50 of 24 µM.

Turning to `CSc1ccc(Cn2c(CN3CCCCC3)nc3ccccc32)cc1` [compound 76], it took 11 µM to reach half-maximal cytotoxicity (CC50).

Compound `O=[N+]([O-])c1ccc(Cn2c(CN3CCCCC3)nc3ccccc32)o1` [compound 77] showed a CC50 of at least 100 µM.

Turning to `c1ccc2[nH]c(Cn3c(CN4CCCCC4)nc4ccccc43)nc2c1` [compound 79], the CC50 was at least 100 µM.

The compound `CN1CCC(N(C)Cc2nc3ccccc3n2Cc2nc3ccccc3[nH]2)CC1` [compound 80] yielded a CC50 of 58 µM.

`CCN(Cc1nc2ccccc2n1Cc1nc2ccccc2[nH]1)C(C)C` [compound 81] showed a CC50 of 63 µM. This CC50 and that of the compound before are within 1.5-fold of each other.

In turn, `CC(C)N(C)Cc1nc2ccccc2n1Cc1nc2ccccc2[nH]1` [compound 82] returned a CC50 of 25 µM.

For the compound `C=CCN(C)Cc1nc2ccccc2n1Cc1nc2ccccc2[nH]1` [compound 83], the midpoint of cytotoxicity, the CC50, lay at 58 µM.

In turn, `CN(C)CCN(C)Cc1nc2ccccc2n1Cc1nc2ccccc2[nH]1` [compound 84] showed a CC50 of at least 100 µM.

As to `CN(Cc1ccco1)Cc1nc2ccccc2n1Cc1nc2ccccc2[nH]1` [compound 85], the CC50 is at least 100 µM.

The compound `CC(C)CCN(CCC(C)C)Cc1nc2ccccc2n1Cc1nc2ccccc2[nH]1` [compound 87] yielded a CC50 of at least 100 µM.

The compound `CCCCCCN(C)Cc1nc2ccccc2n1Cc1nc2ccccc2[nH]1` [compound 88] showed a CC50 of at least 100 µM.

Turning to `C=C(C)CN(CC)Cc1nc2ccccc2n1Cc1nc2ccccc2[nH]1` [compound 89], the CC50 is at least 100 µM.

On to `C#CCN(C)Cc1nc2ccccc2n1Cc1nc2ccccc2[nH]1` [compound 90], for which the CC50 was at least 100 µM.

Take `CCCCCN(C)Cc1nc2ccccc2n1Cc1nc2ccccc2[nH]1` [compound 91]: the midpoint of cytotoxicity, the CC50, lay at 80 µM.

As for `CCCCN(CC)Cc1nc2ccccc2n1Cc1nc2ccccc2[nH]1` [compound 92], the CC50 came out at 68 µM.

`C#CCCN(C)Cc1nc2ccccc2n1Cc1nc2ccccc2[nH]1` [compound 94] registered a CC50 of 16 µM.

On to `COC(=O)CN(C)Cc1nc2ccccc2n1Cc1nc2ccccc2[nH]1` [compound 95], for which the CC50 is at least 100 µM.

In turn, `CCN(CCO)Cc1nc2ccccc2n1Cc1nc2ccccc2[nH]1` [compound 96] showed a CC50 of at least 100 µM.

Take `CN(Cc1nc2ccccc2n1Cc1nc2ccccc2[nH]1)CC(O)c1ccc(O)cc1` (stereo not drawn) [compound 97]: the CC50 was 77 µM. This counts as double-digit micromolar.

On to `CN(CCc1ccccn1)Cc1nc2ccccc2n1Cc1nc2ccccc2[nH]1` [compound 98], for which the CC50 is at least 100 µM.

With `CCN(Cc1ccncc1)Cc1nc2ccccc2n1Cc1nc2ccccc2[nH]1` [compound 99], the cytotoxic concentration (CC50) was at least 100 µM.

Consider `CCCCN(CCCC)CCCNCc1nc2ccccc2n1Cc1nc2ccccc2[nH]1` [compound 100], for which it took 9.3 µM to reach half-maximal cytotoxicity (CC50). This lies in the single-digit micromolar range.

On to `CN(C)CCCN(CCCN(C)C)Cc1nc2ccccc2n1Cc1nc2ccccc2[nH]1` [compound 101], for which the CC50 is at least 100 µM.

`N=C(N)NCc1nc2ccccc2n1Cc1nc2ccccc2[nH]1` [compound 104] returned a 50% cytotoxic concentration (CC50) of at least 100 µM.

`c1ccc2[nH]c(Cn3c(CNCCCn4ccnc4)nc4ccccc43)nc2c1` [compound 105]: the CC50 is 26 µM.

For the compound `CCCCCCCCN(CCCCCCCC)Cc1nc2ccccc2n1Cc1nc2ccccc2[nH]1` [compound 106], the CC50 came out at 74 µM.

Compound `CC(C)N(Cc1nc2ccccc2n1Cc1nc2ccccc2[nH]1)CC(O)c1ccc(O)c(O)c1` (stereo not drawn) [compound 107] returned a CC50 of at least 100 µM.

For `COc1ccc(N(C)Cc2nc3ccccc3n2Cc2nc3ccccc3[nH]2)cc1` [compound 110], the CC50 was at least 100 µM.

Consider `CN(Cc1nc2ccccc2n1Cc1nc2ccccc2[nH]1)C(c1ccccc1)c1ccccc1` [compound 111], for which the 50% cytotoxic concentration (CC50) is at least 100 µM.

Regarding `CN1CCN(CCCNCc2nc3ccccc3n2Cc2nc3ccccc3[nH]2)CC1` [compound 112], the CC50 is at least 100 µM.

Consider `c1cncc(CNCc2nc3ccccc3n2Cc2nc3ccccc3[nH]2)c1` [compound 113], for which the CC50 is at least 100 µM.

On to `Fc1ccc(F)c(CNCc2nc3ccccc3n2Cc2nc3ccccc3[nH]2)c1` [compound 114], for which the CC50 is at least 100 µM.

`FC(F)(F)Oc1ccc(CNCc2nc3ccccc3n2Cc2nc3ccccc3[nH]2)cc1` [compound 115]: the cytotoxic concentration (CC50) was at least 100 µM.

In turn, `COCCCNCc1nc2ccccc2n1Cc1nc2ccccc2[nH]1` [compound 116] yielded a CC50 of at least 100 µM.

In turn, `OCCNCc1nc2ccccc2n1Cc1nc2ccccc2[nH]1` [compound 117] gave a CC50 of at least 100 µM.

As to `c1ccc2[nH]c(Cn3c(CNC4CC5CCC4C5)nc4ccccc43)nc2c1` (stereo not drawn) [compound 119], the CC50 was at least 100 µM.

Compound `COc1ccc(CCNCc2nc3ccccc3n2Cc2nc3ccccc3[nH]2)cc1` [compound 120] had a CC50 of at least 100 µM.

Consider `COc1cc(CNCc2nc3ccccc3n2Cc2nc3ccccc3[nH]2)cc(OC)c1` [compound 122], for which the CC50 is at least 100 µM.

`CCNCc1nc2ccccc2n1Cc1nc2ccccc2[nH]1` [compound 123]: the CC50 is at least 100 µM.

As for `c1ccc2[nH]c(Cn3c(CNCCCN4CCOCC4)nc4ccccc43)nc2c1` [compound 124], the CC50 was at least 100 µM.

In turn, `c1ccc(CCNCc2nc3ccccc3n2Cc2nc3ccccc3[nH]2)nc1` [compound 125] returned a CC50 of at least 100 µM.

On to `Fc1ccc(CNCc2nc3ccccc3n2Cc2nc3ccccc3[nH]2)cc1` [compound 126], for which the CC50 is at least 100 µM.

Regarding `FC(F)(F)Oc1cccc(CNCc2nc3ccccc3n2Cc2nc3ccccc3[nH]2)c1` [compound 127], the CC50 was at least 100 µM.

`CCCNCc1nc2ccccc2n1Cc1nc2ccccc2[nH]1` [compound 128] came in with a CC50 of at least 100 µM.

Turning to `CC(C)OCCCNCc1nc2ccccc2n1Cc1nc2ccccc2[nH]1` [compound 129], the CC50 is at least 100 µM.

In turn, `c1ccc(C(CNCc2nc3ccccc3n2Cc2nc3ccccc3[nH]2)c2ccccc2)cc1` [compound 132] yielded a CC50 of at least 100 µM.

In the case of `COc1cccc(CCNCc2nc3ccccc3n2Cc2nc3ccccc3[nH]2)c1` [compound 135], the CC50 is at least 100 µM.

For the compound `c1ccc2[nH]c(Cn3c(CNCCCn4ccnc4)nc4ccccc43)nc2c1` [compound 136], the CC50 is at least 100 µM.

As for `c1ccc(CN2CCC(NCc3nc4ccccc4n3Cc3nc4ccccc4[nH]3)CC2)cc1` [compound 137], the CC50 was 95 µM. In other words, the double-digit micromolar range.

As for `Clc1ccc(CNCc2nc3ccccc3n2Cc2nc3ccccc3[nH]2)cc1Cl` [compound 138], it took 6.5 µM to reach half-maximal cytotoxicity (CC50).

`FC(F)(F)c1ccccc1CNCc1nc2ccccc2n1Cc1nc2ccccc2[nH]1` [compound 139] yielded a CC50 of 18 µM.

For `O=C1CCCN1CCCNCc1nc2ccccc2n1Cc1nc2ccccc2[nH]1` [compound 141], the CC50 was 35 µM.

`c1csc(CNCc2nc3ccccc3n2Cc2nc3ccccc3[nH]2)c1` [compound 142]: the CC50 is at least 100 µM.

Turning to `COc1ccc(CNCc2nc3ccccc3n2Cc2nc3ccccc3[nH]2)cc1` [compound 146], the CC50 was at least 100 µM.

`c1ccc2[nH]c(Cn3c(CNCCCN4CCCC4)nc4ccccc43)nc2c1` [compound 147] came in with a CC50 of at least 100 µM.
